Results on two substances are retold here after article PMC6347765, “Streamlined SMFA and mosquito dark-feeding regime significantly improve malaria transmission-blocking assay robustness and sensitivity” (Malaria Journal, 2019).

The subject of assay [1] is P. falciparum NF54 in An. coluzzii. The assay can be described thus: Standard membrane feeding assay (SMFA) with AMPs added to gametocytaemic blood mix; oocyst counts in mosquito midguts. The following applies: AMP at 50 μM final concentration in gametocytaemic blood mix fed to An. coluzzii; vs PBS-treated control; oocysts counted seven days post-infection; P < 0.001; Fig. 4a. Type of assay: in vivo, Plasmodium falciparum. Here is the method:
The An. coluzzii N’gousso strain colonized from field-collected mosquitoes of the An. gambiae M molecular form in 2006 in Yaoundé, Cameroon, and the P. falciparum NF54 strain (MRA-1000, patient E) obtained from the MR4 were used for all the experiments reported in this paper. Mosquitoes were reared and maintained at standard insectary conditions (27 ± 1 °C and 70 ± 5%) humidity on a 12:12 light/dark (L:D) cycle: 11.5 h full light of ~ 300 lx starting at 6 am and 11.5 h darkness starting at 6 p.m., separated by 0.5 h dawn and dusk transitions, respectively. All mosquito infection experiments took place between 2 and 4 p.m.
Day 16/17. Gametocyte feeding A 14/15-day old gametocyte culture is used for mosquito infections. Three hours before gametocyte feed, the fructose-soaked cotton ball is removed from the cups to starve the mosquitoes, and mosquito cups are placed in the dark inside a second container for biosafety reasons. The container is placed in an incubator set at standard insectary conditions described above.
One hour before feeding heat-inactivated human serum (56 °C for 30 min) is defrosted at RT and placed on heat block at 37 °C. […]
The gametocyte culture is hand-swirled and placed on 37 °C heat block. […] The number of exflagellation centres formed in the 4 × 4 grid is determined under the microscope (10× objective). […]

Assay [2] concerns different Plasmodium species. The note with it: injection into anopheline mosquitoes previously infected with different Plasmodium species; cited from earlier work. The text has this:
(§1) AMPs from various sources with different levels of plasmodicidal activities have been previously discovered. […] Both AMPs were previously shown to induce parasite killing.

The next assay concerns P. berghei ookinetes. The note with it: 50 μM concentration; in vitro produced P. berghei ookinetes; cited from earlier work.
Excerpt: as §1

In the next assay the test system is P. berghei. The note with it: in both An. coluzzii and Anopheles stephensi; cited from earlier work.
Excerpt: as §1

The next assay deals with P. falciparum. The following applies: mixed with gametocytic blood; An. coluzzii; no reference printed in this sentence (preceding sentence ref 34); cited from earlier work.
Excerpt: as §1

magainin: in assay [1], the “transmission-blocking activity (oocyst infection intensity) compared to control” value is “significant transmission-blocking activity”. Moreover, in assay [2], the “effect on parasite sporogony” value is recorded as “completely block parasite sporogony”.
On to melittin, for which the “transmission-blocking activity (oocyst infection intensity) compared to control” value in assay [1] is “significant transmission-blocking activity”. In the assay on P. berghei ookinetes, the killing of ookinetes result was “kill”. Further, the “infection prevalence and intensity” value with P. berghei was “significant decrease in infection prevalence and intensity”. Moreover, the “P. falciparum oocyst prevalence and intensity” value in the assay on P. falciparum was “reduce P. falciparum oocyst prevalence and intensity”.
